Each molecule was assayed against Gal-3 (Homo sapiens, UniProt P17931) (assay: biolayer interferometry, steady-state analysis).
Type: binding

Chain of Gal-3 (P17931 2-250): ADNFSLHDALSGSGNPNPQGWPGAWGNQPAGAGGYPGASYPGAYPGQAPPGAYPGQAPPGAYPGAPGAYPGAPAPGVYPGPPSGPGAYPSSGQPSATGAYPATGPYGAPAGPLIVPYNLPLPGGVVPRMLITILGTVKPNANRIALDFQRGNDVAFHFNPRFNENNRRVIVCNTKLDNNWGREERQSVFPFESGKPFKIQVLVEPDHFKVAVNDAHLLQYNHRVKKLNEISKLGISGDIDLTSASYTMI

Row | Kd [µM] | Compound
1 | 3.31 | OC[C@H]1O[C@H](Oc2ccc(N=Nc3c(O)c(N=Nc4ccc(O[C@H]5O[C@H](CO)[C@H](O)[C@H](O)[C@H]5O)cc4)c(O)c(N=Nc4ccc(O[C@H]5O[C@H](CO)[C@H](O)[C@H](O)[C@H]5O)cc4)c3O)cc2)[C@H](O)[C@@H](O)[C@H]1O [αGalY]
2 | 9.14 ± 3.42 | OC[C@H]1O[C@@H](Oc2ccc(N=Nc3c(O)c(N=Nc4ccc(O[C@@H]5O[C@H](CO)[C@H](O)[C@H](O)[C@H]5O)cc4)c(O)c(N=Nc4ccc(O[C@@H]5O[C@H](CO)[C@H](O)[C@H](O)[C@H]5O)cc4)c3O)cc2)[C@H](O)[C@@H](O)[C@H]1O [βGalY]
3 | 3.46 ± 1.75 | OC[C@H]1O[C@@H](O[C@H]2[C@H](O)[C@@H](O)[C@H](Oc3ccc(N=Nc4c(O)c(N=Nc5ccc(O[C@@H]6O[C@H](CO)[C@@H](O[C@@H]7O[C@H](CO)[C@H](O)[C@H](O)[C@H]7O)[C@H](O)[C@H]6O)cc5)c(O)c(N=Nc5ccc(O[C@@H]6O[C@H](CO)[C@@H](O[C@@H]7O[C@H](CO)[C@H](O)[C@H](O)[C@H]7O)[C@H](O)[C@H]6O)cc5)c4O)cc3)O[C@@H]2CO)[C@H](O)[C@@H](O)[C@H]1O [βLacY]
